Two molecules from patent US6350780B1, “Methods and compositions for drug delivery” (Allergan Sales, Inc., priority 1995, dated 2002) can be followed below.

For assay [1], the system named is cultured human non-pigmented ciliary epithelial (NPE) cells. Put plainly: regulatory volume decrease (RVD) following hyposmotic swelling of cultured NPE cells. It is filed as cell-based. Particulars: 20 µM BAPTA-AM loaded 30 minutes in isosmotic (290 mOsm) solution, then hyposmotic (198 mOsm) solution; cell volume by Coulter Counter; FIG. 1. Here is the method:
In this example, NPE cells were loaded in an isosmotic (290 mOsm) solution containing 20 µM BAPTA-AM for 30 minutes prior to suspension in a hyposmotoic (198 mOsm) solution. Control cells were subjected to the same hyposmotic solution but without prior loading with BAPTA. Changes in cell volume were measured using a Coulter Counter interfaced to a Coulter Channelyzer. It is noted that, following osmotic swelling, control cells regulate towards their original isosmotic volume while BAPTA-loaded cells remain swollen. The above findings indicate that intracellular BAPTA via chelation of Ca^2+i inhibits solute and osmotically obliged H2O efflux. Because the Ca^2+i-dependent ion flux pathways activated following osmotic cell swelling of NPE cells are involved in aqueous secretion, BAPTA will inhibit aqueous humor formation and, thus, lower IOP.

Assay [2] deals with eye of a mammal suffering high intraocular pressure. Put plainly: intraocular pressure after instillation into the eye of a mammal suffering high intraocular pressure. Particulars: topical instillation in ophthalmically acceptable carrier; mammal with high intraocular pressure. It is filed as in vivo. On the procedure:
This compound comprises the calcium chelator BAPTA blocked with three acetoxymethyl ester (AM) moieties, and containing a single N-linked pACE group in place. The compound is dissolved in an ophthalmically acceptable carrier for topical delivery to the eye. As indicated above, such prodrug-pACE compounds are specifically targeted to cilliary epithelial and retinal cells, without substiantially affecting other cell types. In the above formulation, based on Formula B, the compound will bind acetylcholine receptors and cell surface acetylcholinesterase without being hydrolyzed thereby. The electronically neutral prodrug is then transported or permitted to penetrate the cell membrane, where cytoplasmic esterases convert the prodrug-pACE into the tetraacetic acid form of BAPTA capable of modulating the intracellular concentration of free Ca^++, thereby providing a neuroprotective function.
The compound is instilled into the eye of a mammal suffering high intraocular pressure. The prodrug-pACE compound passes through the cornea and the drug is concentrated within ciliary epithelial and retinal ganglion cells.

Consider `CC(=O)OCOC(=O)CN(CC(=O)OCOC(C)=O)c1ccccc1OCCOc1ccccc1N(CC(=O)OCOC(C)=O)CC(=O)OCOC(C)=O` [BAPTA-AM, acetoxymethyl ester of BAPTA], for which the “effect on regulatory volume decrease (RVD)” value in assay [1] is reported as “totally depress”.
For the molecule `CC(=O)OCOC(=O)CN(CC(=O)OCOC(C)=O)c1ccccc1OCCOc1ccccc1N(CC(=O)OCOC(C)=O)CC(=O)OCOC(=O)CCC(=O)C(C)(C)C` [Example 2], the “intraocular pressure following treatment versus prior to treatment” value in assay [2] was “significantly lower”.
